Drawing on the OligoGym collection, this text covers 3 h FOB score for 25 substances.

HELM strings list units from the 5' end as sugar, base in round brackets, then linkage (d deoxyribose, r ribose, m 2'-O-methyl, p phosphodiester). Strings are as the collection lists them; they lack the last nucleoside at the 3' end of the tested compound. [moe] = 2'-O-(2-methoxyethyl) (MOE); [sp] = phosphorothioate linkage; [m5C] = 5-methylcytosine

This data set addresses GFAP. Put plainly: mouse, dose not given. To be noted: ASO.
“RNA1{[moe](A)[sp].[moe](T)p.[moe](T)p.[moe](T)p.[moe](G)[sp].d(T)[sp].d([m5C])[sp].d(T)[sp].d(T)[sp].d(T)[sp].d(A)[sp].d(T)[sp].d(T)[sp].d(T)[sp].d(T)[sp].[moe](T)p.[moe]([m5C])p.[moe]([m5C])[sp].[moe](T)}$$$$ (last 3' nucleoside missing)” registered a 3 h FOB score of 0 score 0-7.

As for “RNA1{[moe](A)[sp].[moe](T)p.[moe](T)p.[moe](T)p.[moe](G)p.[moe](G)p.d([m5C])[sp].d(A)[sp].d(G)[sp].d(T)[sp].d(A)[sp].d(T)[sp].d(T)[sp].d(A)[sp].d([m5C])[sp].d([m5C])[sp].[moe](T)p.[moe]([m5C])[sp].[moe](T)}$$$$ (last 3' nucleoside missing)”, the 3 h FOB score was 0 score 0-7.

With “RNA1{[moe](A)[sp].[moe](T)p.[moe](T)p.[moe](T)p.[moe](G)p.[moe](T)p.d([m5C])[sp].d(T)[sp].d(T)[sp].d(T)[sp].d(A)[sp].d(T)[sp].d(T)[sp].d(T)[sp].d(T)[sp].d(T)[sp].[moe]([m5C])p.[moe]([m5C])[sp].[moe](T)}$$$$ (last 3' nucleoside missing)”, the 3 h FOB score is 0 score 0-7.

“RNA1{[moe](A)[sp].[moe](T)p.[moe](T)p.[moe](T)p.[moe](G)p.d(G)[sp].d([m5C])[sp].d(A)[sp].d(G)[sp].d(T)[sp].d(A)[sp].d(T)[sp].d(T)[sp].d(A)[sp].d([m5C])[sp].[moe]([m5C])p.[moe](T)p.[moe]([m5C])[sp].[moe](T)}$$$$ (last 3' nucleoside missing)” registered a 3 h FOB score of 2 score 0-7.

Turning to “RNA1{[moe](A)[sp].[moe](T)p.[moe](T)p.[moe](T)p.d(A)[sp].d(T)[sp].d([m5C])[sp].d(T)[sp].d(G)[sp].d(T)[sp].d(G)[sp].d([m5C])[sp].d(T)[sp].d(T)[sp].[moe](T)p.[moe](A)p.[moe](G)p.[moe](T)[sp].[moe](G)}$$$$ (last 3' nucleoside missing)”, the 3 h FOB score was 2 score 0-7.

Turning to “RNA1{[moe](A)[sp].[moe](T)p.[moe](T)p.[moe](T)p.d(G)[sp].d(G)[sp].d([m5C])[sp].d(A)[sp].d(G)[sp].d(T)[sp].d(A)[sp].d(T)[sp].d(T)[sp].d(A)[sp].[moe]([m5C])p.[moe]([m5C])p.[moe](T)p.[moe]([m5C])[sp].[moe](T)}$$$$ (last 3' nucleoside missing)”, the 3 h FOB score was determined as 3 score 0-7.

“RNA1{[moe](A)[sp].[moe](T)p.[moe](T)p.[moe](T)p.d(G)[sp].d(T)[sp].d([m5C])[sp].d(T)[sp].d(T)[sp].d(T)[sp].d(A)[sp].d(T)[sp].d(T)[sp].d(T)[sp].[moe](T)p.[moe](T)p.[moe]([m5C])p.[moe]([m5C])[sp].[moe](T)}$$$$ (last 3' nucleoside missing)” registered a 3 h FOB score of 0 score 0-7.

For the substance “RNA1{[moe](A)[sp].[moe](T)p.[moe](T)p.[moe]([m5C])p.[moe](A)[sp].d([m5C])[sp].d(T)[sp].d(A)[sp].d(A)[sp].d(T)[sp].d(A)[sp].d(T)[sp].d(T)[sp].[moe](T)p.[moe](A)p.[moe](A)[sp].[moe]([m5C])}$$$$ (last 3' nucleoside missing)”, the 3 h FOB score came out at 0 score 0-7.

In turn, “RNA1{[moe](A)[sp].[moe]([m5C])p.[moe](A)p.[moe](G)p.[moe](T)p.d(T)[sp].d([m5C])[sp].d([m5C])[sp].d([m5C])[sp].d(A)[sp].d(G)[sp].d(A)[sp].d(T)[sp].d(A)[sp].d([m5C])[sp].[moe](T)p.[moe]([m5C])p.[moe]([m5C])[sp].[moe](G)}$$$$ (last 3' nucleoside missing)” gave a 3 h FOB score of 2 score 0-7.

“RNA1{[moe](A)[sp].[moe]([m5C])p.[moe](A)p.[moe](T)p.[moe](T)p.[moe]([m5C])p.d(A)[sp].d([m5C])[sp].d(T)[sp].d(A)[sp].d(A)[sp].d(T)[sp].d(A)[sp].d(T)[sp].d(T)[sp].d(T)[sp].[moe](A)p.[moe](A)[sp].[moe]([m5C])}$$$$ (last 3' nucleoside missing)” yielded a 3 h FOB score of 0 score 0-7.

“RNA1{[moe](A)[sp].[moe]([m5C])p.[moe](A)p.[moe](T)p.[moe](T)p.d([m5C])[sp].d(A)[sp].d([m5C])[sp].d(T)[sp].d(A)[sp].d(A)[sp].d(T)[sp].d(A)[sp].d(T)[sp].d(T)[sp].[moe](T)p.[moe](A)p.[moe](A)[sp].[moe]([m5C])}$$$$ (last 3' nucleoside missing)” came in with a 3 h FOB score of 0 score 0-7.

Take “RNA1{[moe](A)[sp].[moe]([m5C])p.[moe](A)p.[moe](T)p.d(T)[sp].d([m5C])[sp].d(A)[sp].d([m5C])[sp].d(T)[sp].d(A)[sp].d(A)[sp].d(T)[sp].d(A)[sp].d(T)[sp].[moe](T)p.[moe](T)p.[moe](A)p.[moe](A)[sp].[moe]([m5C])}$$$$ (last 3' nucleoside missing)”: the 3 h FOB score amounted to 0 score 0-7.

“RNA1{[moe](A)[sp].[moe]([m5C])p.[moe](G)p.[moe](T)p.[moe]([m5C])p.[moe](A)p.d([m5C])[sp].d(A)[sp].d(T)[sp].d(T)[sp].d([m5C])[sp].d(A)[sp].d([m5C])[sp].d(T)[sp].d(A)[sp].d(A)[sp].[moe](T)p.[moe](A)[sp].[moe](T)}$$$$ (last 3' nucleoside missing)” displayed a 3 h FOB score of 0 score 0-7.

Regarding “RNA1{[moe](A)[sp].[moe]([m5C])p.[moe](G)p.[moe](T)p.[moe]([m5C])p.d(A)[sp].d([m5C])[sp].d(A)[sp].d(T)[sp].d(T)[sp].d([m5C])[sp].d(A)[sp].d([m5C])[sp].d(T)[sp].d(A)[sp].[moe](A)p.[moe](T)p.[moe](A)[sp].[moe](T)}$$$$ (last 3' nucleoside missing)”, the 3 h FOB score is 0 score 0-7.

With “RNA1{[moe](A)[sp].[moe]([m5C])p.[moe](G)p.[moe](T)p.d([m5C])[sp].d(A)[sp].d([m5C])[sp].d(A)[sp].d(T)[sp].d(T)[sp].d([m5C])[sp].d(A)[sp].d([m5C])[sp].d(T)[sp].[moe](A)p.[moe](A)p.[moe](T)p.[moe](A)[sp].[moe](T)}$$$$ (last 3' nucleoside missing)”, the 3 h FOB score stood at 0 score 0-7.

Regarding “RNA1{[moe](A)[sp].[moe]([m5C])p.[moe](T)p.[moe](A)p.[moe](G)p.[moe](T)p.d([m5C])[sp].d(A)[sp].d(G)[sp].d([m5C])[sp].d([m5C])[sp].d(T)[sp].d(G)[sp].d(G)[sp].d(T)[sp].d(T)[sp].[moe](A)p.[moe](G)[sp].[moe]([m5C])}$$$$ (last 3' nucleoside missing)”, the 3 h FOB score is 4 score 0-7.

The substance “RNA1{[moe](A)[sp].[moe]([m5C])p.[moe](T)p.[moe](A)p.[moe](G)p.d(T)[sp].d([m5C])[sp].d(A)[sp].d(G)[sp].d([m5C])[sp].d([m5C])[sp].d(T)[sp].d(G)[sp].d(G)[sp].d(T)[sp].[moe](T)p.[moe](A)p.[moe](G)[sp].[moe]([m5C])}$$$$ (last 3' nucleoside missing)” came in with a 3 h FOB score of 2 score 0-7.

“RNA1{[moe](A)[sp].[moe]([m5C])p.[moe](T)p.[moe](A)p.[moe](T)[sp].d([m5C])[sp].d(T)[sp].d(A)[sp].d(G)[sp].d(G)[sp].d(A)[sp].d(T)[sp].d(T)[sp].[moe](T)p.[moe](G)p.[moe](G)[sp].[moe]([m5C])}$$$$ (last 3' nucleoside missing)” came in with a 3 h FOB score of 4 score 0-7.

In the case of “RNA1{[moe](A)[sp].[moe]([m5C])p.[moe](T)p.[moe](A)p.d(G)[sp].d(T)[sp].d([m5C])[sp].d(A)[sp].d(G)[sp].d([m5C])[sp].d([m5C])[sp].d(T)[sp].d(G)[sp].d(G)[sp].[moe](T)p.[moe](T)p.[moe](A)p.[moe](G)[sp].[moe]([m5C])}$$$$ (last 3' nucleoside missing)”, the 3 h FOB score came out at 2 score 0-7.

For the substance “RNA1{[moe](A)[sp].[moe]([m5C])p.[moe](T)p.[moe](A)p.d(T)[sp].d([m5C])[sp].d(T)[sp].d(A)[sp].d(G)[sp].d(G)[sp].d(A)[sp].d(T)[sp].d(T)[sp].d(T)[sp].[moe](G)p.[moe](G)p.[moe]([m5C])p.[moe](A)[sp].[moe](G)}$$$$ (last 3' nucleoside missing)”, the 3 h FOB score came out at 2 score 0-7.

For the substance “RNA1{[moe](A)[sp].[moe]([m5C])p.[moe]([m5C])p.[moe](T)p.[moe]([m5C])[sp].d([m5C])[sp].d(A)[sp].d(T)[sp].d([m5C])[sp].d(T)[sp].d([m5C])[sp].d(T)[sp].d(G)[sp].d(G)[sp].d([m5C])[sp].[moe](A)p.[moe](A)p.[moe]([m5C])[sp].[moe](A)}$$$$ (last 3' nucleoside missing)”, the 3 h FOB score amounted to 6 score 0-7.

In turn, “RNA1{[moe](A)[sp].[moe]([m5C])p.[moe]([m5C])p.[moe](T)p.[moe]([m5C])[sp].d([m5C])[sp].d([m5C])[sp].d(T)[sp].d(G)[sp].d(A)[sp].d([m5C])[sp].d([m5C])[sp].d(T)[sp].d(G)[sp].d(T)[sp].[moe]([m5C])p.[moe](T)p.[moe](A)[sp].[moe](T)}$$$$ (last 3' nucleoside missing)” showed a 3 h FOB score of 3 score 0-7.

As to “RNA1{[moe](G)[sp].[moe](A)p.[moe](A)p.[moe](T)p.[moe](G)[sp].d(G)[sp].d(T)[sp].d(G)[sp].d(A)[sp].d(T)[sp].d([m5C])[sp].d([m5C])[sp].d(G)[sp].d(G)[sp].d(T)[sp].[moe](T)p.[moe]([m5C])p.[moe](T)[sp].[moe]([m5C])}$$$$ (last 3' nucleoside missing)”, the 3 h FOB score was found to be 5 score 0-7.

As to “RNA1{[moe](G)[sp].[moe](A)p.[moe](A)p.[moe](T)p.[moe]([m5C])[sp].d(A)[sp].d(T)[sp].d(T)[sp].d(T)[sp].d([m5C])[sp].d(A)[sp].d(G)[sp].d(G)[sp].d(G)[sp].d([m5C])[sp].[moe]([m5C])p.[moe](A)p.[moe](A)[sp].[moe](T)}$$$$ (last 3' nucleoside missing)”, the 3 h FOB score came out at 6 score 0-7.

“RNA1{[moe](G)[sp].[moe](A)p.[moe](G)p.[moe](A)p.[moe](T)[sp].d(A)[sp].d(T)[sp].d([m5C])[sp].d(T)[sp].d(T)[sp].d(G)[sp].d(T)[sp].d(G)[sp].[moe](A)p.[moe]([m5C])p.[moe]([m5C])[sp].[moe](T)}$$$$ (last 3' nucleoside missing)” gave a 3 h FOB score of 4 score 0-7.
